{
  "source": "paper PMC7310027",
  "about": "“PET imaging of soluble epoxide hydrolase in non-human primate brain with [^18F]FNDP” (EJNMMI Research, 2020)",
  "key": {"[1]": {"experiment": "Baboon [^18F]FNDP dynamic PET, baseline scans with kinetic modelling (2TCM, 1TCM, Logan)", "assay_type": "in vivo, baboon (Papio anubis)", "settings": "male, baboon (Papio anubis), intravenous, baseline, mean ± SD of 3 baboons", "method": "(§1) PET images were acquired using a CPS/CTI high-resolution research tomograph (HRRT), which has an axial resolution (FWHM) of 2.4 mm and in-plane resolution of 2.4–2.8 mm. […] These blocking studies were performed 27 to 43 days apart from each other to ensure full animal recovery. The animals had no food for 12 h prior to each PET study. Anesthesia was induced with intramuscular ketamine (7.5–10 mg/kg) and maintained with a continuous intravenous infusion of propofol at 0.3–0.4 mg/kg/min throughout the PET experiment. One venous catheter was inserted for the radioligand injection, and one arterial catheter was inserted to obtain arterial blood samples. Baboons were intubated to facilitate respiration, and circulatory volume was maintained by constant infusion of isotonic saline. Physiological vital signs including heart rate, blood pressure, electrocardiogram, and oxygen saturation were monitored continuously throughout the study.\nThe animals were positioned in the PET scanner with the head immobilized using a thermoplastic mask. A 6-min transmission scan was acquired using a rotating ^137Cesium source for generating attenuation maps. The 90-min dynamic PET acquisition was then started in three-dimensional list mode simultaneously with an intravenous bolus injection of [^18F]FNDP. […]\nMeasurement of the arterial plasma input function was conducted through collection of ~ 40 blood samples over the course of the 90-min dynamic PET study. […] Samples were then centrifuged at 1200 × g, and the plasma radioactivity was measured with a cross-calibrated PerkinElmer Wizard 2480 automatic gamma counter.\nThe 90 min of PET data were binned into 30 frames: four 15-s, four 30-s, three 1-min, two 2-min, five 4 -min, and 12 5-min frames. Images were reconstructed using the 3D iterative ordered subset expectation maximization (OS-EM) algorithm (with six iterations and 16 subsets) with correction for radioactive decay, deadtime, attenuation, scatter, and randoms. The reconstructed image space consisted of cubic voxels, each 1.22 mm^3 in size, and spanning dimensions of 31 cm × 31 cm (transaxially) and 25 cm (axially).\nThe software package PMOD (v3.7, PMOD Technologies Ltd, Zurich, Switzerland) was used for the image processing and subsequent kinetic analysis. The previously acquired T1-weighted brain MRI images for the baboon were co-registered to the reconstructed dynamic PET images acquired in this study. Through manually matching the co-registered MRI to the INIA19 Template and NeuroMaps Atlas for Primate Brain Image Parcellation and Spatial Normalization, 13 representative baboon brain volumes of interest (VOIs) were defined, […] Regional time activity curves (TACs) were then generated for both baseline and blocking PET scans using those VOIs.\n(§2) Next, kinetic modeling was performed based on the TACs and the metabolite-corrected arterial plasma input functions. For brain uptake, the primary outcome measure was the regional brain distribution volume (VT) of [^18F]FNDP, defined as concentration of the radiotracer in regional tissue relative to that in blood at equilibrium. We evaluated which compartmental models (e.g., two-tissue-three-compartment (2TCM) or one-tissue-two-compartment (1TCM)) best described the [^18F]FNDP PET data, using statistical model selection criteria, such as the Akaike information criterion. For comparison, the Logan graphical method (t* = 30 min) was also used to compute regional VT, as well as generating voxel-wise parametric images of VT [31]."}, "[2]": {"tested_on": "soluble epoxide hydrolase (sEH)", "experiment": "Baboon [^18F]FNDP PET, dose-escalation blocking with AR-9281 (Lassen plot, occupancy)", "assay_type": "in vivo, baboon (Papio anubis)", "method": "as §1\nThe animals were positioned in the PET scanner with the head immobilized using a thermoplastic mask. […] The 90-min dynamic PET acquisition was then started in three-dimensional list mode simultaneously with an intravenous bolus injection of [^18F]FNDP. […]\nas §2\nFor blocking studies, occupancy of sEH by FNDP was calculated using regional VT values as Eq 1 Occupancy=ΔVT/VTBaseline−VND,\nwhere VND, the distribution volume of non-displaceable radioligand, was obtained from the Lassen plot, i.e., using a scatterplot of ΔVT (i.e., baseline VT minus post-blocking VT) versus baseline VT of all regions. […] When that condition was satisfied, VND was given as the intercept of the regression line with the X-axis. The non-displaceable binding potential (BPND) was computed as VT /VND − 1."}, "[3]": {"tested_on": "sEH", "design": "method as in PMID 27417650", "settings": "self-blockade experiments; cited from earlier work"}},
  "note": "Where two headings read alike, the source gives them in different places.",
  "data": [
    {"smiles": "O=C(NCCC(c1ccccc1)c1ccccc1)c1ccc([18F])nc1", "note": "[[^18F]FNDP, N-(3,3-diphenylpropyl)-6-^18F-fluoronicotinamide]", "values": [
      {"measurement": "Kp", "setting": "[1]; brain: amygdala, Amygdala, read-out: 1TCM VT", "value": "10.5 ± 0.81"},
      {"measurement": "Kp", "setting": "[1]; brain: amygdala, Amygdala, read-out: 2TCM VT", "value": "12.5 ± 2.47"},
      {"measurement": "Kp", "setting": "[1]; brain: amygdala, Amygdala, read-out: Logan VT", "value": "12 ± 1.63"},
      {"measurement": "Kp", "setting": "[1]; brain: caudate, Caudate, read-out: 1TCM VT", "value": "12.9 ± 1.44"},
      {"measurement": "Kp", "setting": "[1]; brain: caudate, Caudate, read-out: 2TCM VT", "value": "13.9 ± 2.28"},
      {"measurement": "Kp", "setting": "[1]; brain: caudate, Caudate, read-out: Logan VT", "value": "13.3 ± 1.94"},
      {"measurement": "Kp", "setting": "[1]; brain: cerebellum, Cerebellum, read-out: Logan VT", "value": "7.63 ± 0.58"},
      {"measurement": "Kp", "setting": "[1]; brain: hippocampus, Hippocampus, read-out: 1TCM VT", "value": "10.3 ± 1.55"},
      {"measurement": "Kp", "setting": "[1]; brain: hippocampus, Hippocampus, read-out: 2TCM VT", "value": "11.5 ± 2.61"},
      {"measurement": "Kp", "setting": "[1]; brain: hippocampus, Hippocampus, read-out: Logan VT", "value": "11 ± 1.96"},
      {"measurement": "Kp", "setting": "[1]; brain: hypothalamus, Hypothalamus, read-out: 1TCM VT", "value": "7.77 ± 0.35"},
      {"measurement": "Kp", "setting": "[1]; brain: hypothalamus, Hypothalamus, read-out: 2TCM VT", "value": "8.32 ± 0.57"},
      {"measurement": "Kp", "setting": "[1]; brain: hypothalamus, Hypothalamus, read-out: Logan VT", "value": "8.08 ± 0.44"},
      {"measurement": "Kp", "setting": "[1]; brain: insula, Insula, read-out: 1TCM VT", "value": "12.1 ± 1.08"},
      {"measurement": "Kp", "setting": "[1]; brain: insula, Insula, read-out: 2TCM VT", "value": "13.8 ± 1.42"},
      {"measurement": "Kp", "setting": "[1]; brain: insula, Insula, read-out: Logan VT", "value": "12.8 ± 1.32"},
      {"measurement": "Kp", "setting": "[1]; brain: putamen, Putamen, read-out: 1TCM VT", "value": "12.9 ± 1.54"},
      {"measurement": "Kp", "setting": "[1]; brain: putamen, Putamen, read-out: 2TCM VT", "value": "13.8 ± 2.27"},
      {"measurement": "Kp", "setting": "[1]; brain: putamen, Putamen, read-out: Logan VT", "value": "13.3 ± 1.81"},
      {"measurement": "Kp", "setting": "[1]; brain: temporal gyrus, Temporal gyrus, read-out: 1TCM VT", "value": "9.05 ± 0.41"},
      {"measurement": "Kp", "setting": "[1]; brain: temporal gyrus, Temporal gyrus, read-out: 2TCM VT", "value": "9.77 ± 1.02"},
      {"measurement": "Kp", "setting": "[1]; brain: thalamus, Thalamus, read-out: 1TCM VT", "value": "7.42 ± 0.36"},
      {"measurement": "Kp", "setting": "[1]; brain: thalamus, Thalamus, read-out: 2TCM VT", "value": "7.9 ± 0.74"},
      {"measurement": "Kp", "setting": "[1]; brain: thalamus, Thalamus, read-out: Logan VT", "value": "7.87 ± 0.55"},
      {"measurement": "K1 (2TCM)", "setting": "[2]; 0.02-mg/kg AR-9281 blocking scan, Baboon3", "value": "0.170 ± 0.021", "unit": "mL/cm^3/min"},
      {"measurement": "K1 (2TCM)", "setting": "[2]; 0.1-mg/kg AR-9281 blocking scan, Baboon3", "value": "0.179 ± 0.026", "unit": "mL/cm^3/min"},
      {"measurement": "K1 (2TCM)", "setting": "[2]; 1-mg/kg AR-9281 blocking scan, Baboon3", "value": "0.166 ± 0.032", "unit": "mL/cm^3/min"},
      {"measurement": "VND (distribution volume of non-displaceable radioligand)", "setting": "[2]; Lassen plot, AR-9281 blocking scans, Baboon3", "value": "0.865 ± 0.066", "unit": "mL/mL"},
      {"measurement": "specific binding (binding specificity)", "setting": "[2]; baboon brain", "value": "91.70 ± 1.74", "unit": "%"},
      {"measurement": "total distribution volume (VT)", "setting": "[2]; male, baboon (Papio anubis), brain, intravenous, read-out: high-dose blocking VT", "value": "1 ± 0.09"},
      {"measurement": "binding specificity for sEH", "setting": "[3]", "value": "~ 95%"}
    ]}
  ]
}
